Drawing on patent US9546164B2 (GENENTECH, INC., priority 2013, dated 2017), this text covers IC50 for 29 compounds.

Molecules are shown by their SMILES. Structures can show the parent of a compound that is named as a salt.

The first experiment deals with hNav1.7 (Homo sapiens (Human), UniProt Q15858). Description: Tritiated sulfonamide competitive binding to membranes from cells expressing hNav1.7 and the β1 subunit.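 Also: Filter-bound radioactivity counted by liquid scintillation, nonspecific binding defined with excess unlabelled ligand, IC50 fitted to percent inhibition of specific binding.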
Chain of hNav1.7 (Q15858 other isoform, or with tags, fused parts or gaps): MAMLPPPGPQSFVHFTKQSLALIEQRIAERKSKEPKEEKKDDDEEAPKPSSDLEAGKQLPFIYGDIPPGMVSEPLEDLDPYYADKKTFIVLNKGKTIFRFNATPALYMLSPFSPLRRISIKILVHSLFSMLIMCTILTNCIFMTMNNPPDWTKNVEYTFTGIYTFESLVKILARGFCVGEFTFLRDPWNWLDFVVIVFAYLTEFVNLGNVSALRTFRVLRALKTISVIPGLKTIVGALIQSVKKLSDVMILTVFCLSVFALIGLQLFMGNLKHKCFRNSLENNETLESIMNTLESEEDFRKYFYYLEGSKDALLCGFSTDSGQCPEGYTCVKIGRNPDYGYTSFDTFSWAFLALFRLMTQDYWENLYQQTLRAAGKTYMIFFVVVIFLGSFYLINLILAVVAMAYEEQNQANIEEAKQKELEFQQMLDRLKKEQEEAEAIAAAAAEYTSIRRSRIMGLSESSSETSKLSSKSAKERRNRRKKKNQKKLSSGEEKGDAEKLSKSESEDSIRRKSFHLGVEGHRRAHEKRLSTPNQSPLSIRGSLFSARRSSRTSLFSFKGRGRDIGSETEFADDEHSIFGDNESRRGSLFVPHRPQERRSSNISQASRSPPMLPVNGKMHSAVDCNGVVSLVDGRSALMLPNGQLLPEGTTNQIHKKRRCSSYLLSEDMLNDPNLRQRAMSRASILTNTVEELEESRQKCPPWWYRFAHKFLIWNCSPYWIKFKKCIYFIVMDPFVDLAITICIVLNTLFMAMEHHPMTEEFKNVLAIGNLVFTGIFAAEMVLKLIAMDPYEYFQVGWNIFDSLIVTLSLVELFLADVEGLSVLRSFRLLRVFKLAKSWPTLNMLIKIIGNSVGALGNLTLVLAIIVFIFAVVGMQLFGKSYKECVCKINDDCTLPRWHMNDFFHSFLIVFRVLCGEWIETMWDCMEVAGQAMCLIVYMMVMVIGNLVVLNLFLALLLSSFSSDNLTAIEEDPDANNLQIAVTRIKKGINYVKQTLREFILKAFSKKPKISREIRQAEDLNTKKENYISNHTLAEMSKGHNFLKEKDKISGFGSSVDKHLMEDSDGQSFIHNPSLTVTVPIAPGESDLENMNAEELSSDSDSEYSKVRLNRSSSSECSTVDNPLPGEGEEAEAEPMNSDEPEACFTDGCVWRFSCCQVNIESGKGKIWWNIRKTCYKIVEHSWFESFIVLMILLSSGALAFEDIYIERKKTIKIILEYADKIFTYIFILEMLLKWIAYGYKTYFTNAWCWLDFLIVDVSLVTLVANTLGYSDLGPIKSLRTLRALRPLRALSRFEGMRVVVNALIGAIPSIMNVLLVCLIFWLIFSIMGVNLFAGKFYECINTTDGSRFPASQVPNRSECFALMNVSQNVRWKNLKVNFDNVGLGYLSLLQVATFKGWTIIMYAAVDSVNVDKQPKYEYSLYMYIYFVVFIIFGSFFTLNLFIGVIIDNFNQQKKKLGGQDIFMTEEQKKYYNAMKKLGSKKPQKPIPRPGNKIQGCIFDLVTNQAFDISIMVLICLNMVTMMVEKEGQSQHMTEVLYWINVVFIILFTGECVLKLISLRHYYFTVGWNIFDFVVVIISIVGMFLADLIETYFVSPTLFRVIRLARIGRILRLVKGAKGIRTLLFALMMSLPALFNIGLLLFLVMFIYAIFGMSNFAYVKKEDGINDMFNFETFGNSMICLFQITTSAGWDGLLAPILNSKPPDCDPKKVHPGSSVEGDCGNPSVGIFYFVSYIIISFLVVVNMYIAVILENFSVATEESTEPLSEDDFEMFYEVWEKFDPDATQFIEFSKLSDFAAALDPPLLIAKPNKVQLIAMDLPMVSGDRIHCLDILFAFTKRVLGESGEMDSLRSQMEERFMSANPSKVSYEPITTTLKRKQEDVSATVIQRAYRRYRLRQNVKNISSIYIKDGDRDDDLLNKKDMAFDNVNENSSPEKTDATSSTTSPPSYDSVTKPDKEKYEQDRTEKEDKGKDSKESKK
Chain of hNav1.7 (Q07699 19-218 partner): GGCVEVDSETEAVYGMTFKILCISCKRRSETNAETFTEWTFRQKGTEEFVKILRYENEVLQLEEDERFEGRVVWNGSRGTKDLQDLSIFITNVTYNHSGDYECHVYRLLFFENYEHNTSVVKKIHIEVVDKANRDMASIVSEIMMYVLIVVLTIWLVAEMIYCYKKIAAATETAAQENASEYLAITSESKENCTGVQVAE
Settings: not given
In turn, `O=C(NS(=O)(=O)C1CC1)c1cc(C2CC2)c(O[C@@H]2CCCN(c3ccc(F)cc3)C2)cc1F` [Example 38, (R)-5-cyclopropyl-N-(cyclopropylsulfonyl)-2-fluoro-4-((1-(4-fluorophenyl)piperidin-3-yl)oxy)benzamide] registered an IC50 of 3.9 nM.

In turn, `O=C(NS(=O)(=O)C1CC1)c1cc(C2CC2)c(O[C@@H]2CCCN(Cc3ccccc3Cl)C2)cc1F` [Example 23, (R)-4-((1-(2-chlorobenzyl)piperidin-3-yl)oxy)-5-cyclopropyl-N-(cyclopropylsulfonyl)-2-fluorobenzamide] displayed an IC50 of 1.7 nM. In turn, `CC1(C)CN(Cc2cc(F)c(C(=O)NS(C)(=O)=O)cc2C2CC2)CCC1Oc1cc(C(F)(F)F)c(Cl)cn1` (centres unmarked) [Example 561, 4-((4-((5-chloro-4-(trifluoromethyl)pyridin-2-yl)oxy)-3,3-dimethylpiperidin-1-yl)methyl)-5-cyclopropyl-2-fluoro-N-(methylsulfonyl)benzamide, trifluoroacetic acid salt] gave an IC50 of 2.8 nM.

`CS(=O)(=O)NC(=O)c1cc(C2CC2)c(CN2CCC(OCc3cc(Cl)cc(Cl)c3)CC2)cc1F` [Example 511, 5-cyclopropyl-4-((4-((3,5-dichlorobenzyl)oxy)piperidin-1-yl)methyl)-2-fluoro-N-(methylsulfonyl)benzamide, trifluoroacetic acid salt] yielded an IC50 of 23.5 nM.

For the compound `O=C(NS(=O)(=O)C1CC1)c1cc(Cl)c(O[C@@H]2CCCN(Cc3ccc(F)cc3Cl)C2)cc1F.O=C(O)C(Cl)(Cl)Cl` [Example 39, (R)-5-chloro-4-((1-(2-chloro-4-fluorobenzyl)piperidin-3-yl)oxy)-N-(cyclopropylsulfonyl)-2-fluorobenzamide, trichloroacetic acid salt], the IC50 worked out at 6.8 nM. Regarding `C[C@H](c1cc(Cl)cc(Cl)c1)N1CCC(COc2cc(F)c(C(=O)NS(=O)(=O)C3CC3)cc2C2CC2)CC1` [Example 269, (R)-5-cyclopropyl-N-(cyclopropylsulfonyl)-4-((1-(1-(3,5-dichlorophenyl)ethyl)piperidin-4-yl)methoxy)-2-fluorobenzamide], the IC50 came to 3.4 nM.

Staying with this experiment, now noted: read-out: Ligand Binding Assay; 100 pM [3H]compound, membranes with hNav1.7 and β1 subunit, 18 h, room temperature.
For the compound `CS(=O)(=O)NC(=O)c1cc(C2CC2)c(CN2CCO[C@H](Cc3ccc(F)cc3Cl)C2)cc1F` [Example 466, (R)-4-((2-(2-chloro-4-fluorobenzyl)morpholino)methyl)-5-cyclopropyl-2-fluoro-N-(methylsulfonyl)benzamide, trifluoroacetic acid salt], the IC50 came to 7.3 nM. Regarding `CC(C)Oc1ncc(CN2CC(COc3cc(F)c(C(=O)NS(C)(=O)=O)cc3C3CC3)C2)cc1Cl` [Example 83, 4-((1-((5-Chloro-6-isopropoxypyridin-3-yl)methyl)azetidin-3-yl)methoxy)-5-cyclopropyl-2-fluoro-N-(methylsulfonyl)benzamide], the IC50 stood at 59 nM. Still for that read-out and setting: the figure for `CC[C@H](c1cc(Cl)cc(Cl)c1)N1CCC(COc2cc(F)c(C(=O)NS(C)(=O)=O)cc2C2CC2)CC1` [Example 240, (R)-5-cyclopropyl-4-((1-(1-(3,5-dichlorophenyl)propyl)piperidin-4-yl)methoxy)-2-fluoro-N-(methylsulfonyl)benzamide] is 2.4 nM; for `O=C(NS(=O)(=O)N1CCC1)c1cc(C2CC2)c(O[C@@H]2CCCN(c3ccccn3)C2)cc1F` [Example 493, (R)—N-(azetidin-1-ylsulfonyl)-5-cyclopropyl-2-fluoro-4-((1-(pyridin-2-yl)piperidin-3-yl)oxy)benzamide] it is 243 nM; for `COC[C@@H](c1cccc(Cl)c1)N1CCC(COc2cc(F)c(C(=O)NS(C)(=O)=O)cc2C2CC2)CC1` [Example 262, (R)-4-((1-(1-(3-chlorophenyl)-2-methoxyethyl)piperidin-4-yl)methoxy)-5-cyclopropyl-2-fluoro-N-(methylsulfonyl)benzamide] it is 18 nM. On to `C[C@@H](c1cc(F)cc(C(F)(F)F)c1)N1CCC(C)(COc2cc(F)c(C(=O)NS(C)(=O)=O)cc2C2CC2)CC1` (single isomer, unassigned) [Example 171], for which the IC50 came out at 5 nM. The same measure, in the same setting: the figure for `Cc1nc(CN2CCC(COc3cc(F)c(C(=O)NS(=O)(=O)C4CC4)cc3C3CC3)CC2)cs1` [Example 354, 5-cyclopropyl-N-(cyclopropylsulfonyl)-2-fluoro-4-((1-((2-methylthiazol-4-yl)methyl)piperidin-4-yl)methoxy)benzamide, trifluoroacetic acid salt] is 2670 nM. Take `CS(=O)(=O)NC(=O)c1cc(C2CC2)c(O[C@@H]2CCCN(Cc3cc(C(F)(F)F)cc(Cl)c3F)C2)cc1F` [Example 311, (R)-4-((1-(3-chloro-2-fluoro-5-(trifluoromethyl)benzyl)piperidin-3-yl)oxy)-5-cyclopropyl-2-fluoro-N-(methylsulfonyl)benzamide]: the IC50 is 2.9 nM. For `CS(=O)(=O)NC(=O)c1cc(C2CC2)c(OCC2CCN(Cc3ccc(F)c(C(F)(F)F)c3)CC2)cc1F` [Example 189, 5-Cyclopropyl-2-fluoro-4-((1-(4-fluoro-3-(trifluoromethyl)benzyl)piperidin-4-yl)methoxy)-N-(methylsulfonyl)benzamide], the IC50 came to 16 nM. With `CCS(=O)(=O)NC(=O)c1cc(C2CC2)c(OCC2CCN([C@@H](COC)c3ccc(Cl)cc3Cl)CC2)cc1F` [Example 287, (R)-5-cyclopropyl-4-((1-(1-(2,4-dichlorophenyl)-2-methoxyethyl)piperidin-4-yl)methoxy)-N-(ethylsulfonyl)-2-fluorobenzamide], the IC50 worked out at 3.5 nM. In the case of `CS(=O)(=O)NC(=O)c1cc(C2CC2)c(OCC2CN([C@H](c3ccccc3)c3cccnc3)C2)cc1F` [Example 81, (R)-5-Cyclopropyl-2-fluoro-N-(methylsulfonyl)-4-((1-(phenyl(pyridin-3-yl)methyl)azetidin-3-yl)methoxy)benzamide], the IC50 was found to be 630 nM.

Take `CS(=O)(=O)NC(=O)c1cc(C2CC2)c(OCC2CCN(Cc3cc(C(F)(F)F)cc(Cl)c3F)CC2)cc1F` [Example 581, 4-((1-(3-chloro-2-fluoro-5-(trifluoromethyl)benzyl)piperidin-4-yl)methoxy)-5-cyclopropyl-2-fluoro-N-(methylsulfonyl)benzamide]: the IC50 turned out to be 3.8 nM. For `CS(=O)(=O)NC(=O)c1cc(C2CC2)c(OCC2CN(c3cc(C(F)(F)F)c(Cl)cn3)C2)cc1F` [Example 542, 4-((1-(5-chloro-4-(trifluoromethyl)pyridin-2-yl)azetidin-3-yl)methoxy)-5-cyclopropyl-2-fluoro-N-(methylsulfonyl)benzamide], the IC50 worked out at 27 nM. With `O=C(NS(=O)(=O)C1CC1)c1cc(C2CC2)c(OCC2CCN(C3(c4cc(Cl)cc(Cl)c4)COC3)CC2)cc1F` [Example 175, 5-Cyclopropyl-N-(cyclopropylsulfonyl)-4-((1-(3-(3,5-dichlorophenyl)oxetan-3-yl)piperidin-4-yl)methoxy)-2-fluorobenzamide], the IC50 amounted to 5.2 nM.

As for `CC(c1cc(F)cc(F)c1)N1CC(COc2cc(F)c(C(=O)NS(C)(=O)=O)cc2C2CC2)C1` (centres unmarked) [Example 86, 5-Cyclopropyl-4-((1-(1-(3,5-difluorophenyl)ethyl)azetidin-3-yl)methoxy)-2-fluoro-N-(methylsulfonyl)benzamide], the IC50 is 49.5 nM. On the same count and under the same terms, in the case of `CC1(COc2cc(F)c(C(=O)NS(=O)(=O)C3CC3)cc2C2CC2)CN(c2cc(Cl)c(C(F)(F)F)cn2)C1` [Example 486, 4-((1-(4-chloro-5-(trifluoromethyl)pyridin-2-yl)-3-methylazetidin-3-yl)methoxy)-5-cyclopropyl-N-(cyclopropylsulfonyl)-2-fluorobenzamide, trifluoroacetic acid salt] it was 5.6 nM; in that of `O=C(NS(=O)(=O)N1CCC1)c1cc(C2CC2)c(OCC2CCN(c3ccccc3)CC2)cc1F` [Example 291, N-(azetidin-1-ylsulfonyl)-5-cyclopropyl-2-fluoro-4-((1-phenylpiperidin-4-yl)methoxy)benzamide], 11 nM. For `C[C@@H](c1cc(Cl)cc(Cl)c1)N1CC(C)(COc2cc(F)c(C(=O)NS(C)(=O)=O)cc2C2CC2)C1` (single isomer, unassigned) [Example 186], the IC50 worked out at 4 nM. With `CS(=O)(=O)NC(=O)c1cc(C2CC2)c(OCC2CN([C@@H](c3ccccc3)c3ccccc3F)C2)cc1F` [Example 124, (S)-5-Cyclopropyl-2-fluoro-4-((1-((2-fluorophenyl)(phenyl)methyl)azetidin-3-yl)methoxy)-N-(methylsulfonyl)benzamide], the IC50 is 71.3 nM. Regarding `Cc1cc(C(=O)NS(=O)(=O)C2CC2)c(F)cc1OCC1CCN([C@@H](C)c2cc(Cl)cc(Cl)c2)CC1` [Example 359, (S)—N-(cyclopropylsulfonyl)-4-((1-(1-(3,5-dichlorophenyl)ethyl)piperidin-4-yl)methoxy)-2-fluoro-5-methylbenzamide trifluoroacetic acid salt], the IC50 was determined as 11.4 nM. On to `O=C(NS(=O)(=O)C1CC1)c1cc(C2CC2)c(OC[C@@H]2C[C@H]3CC[C@@H](C2)N3Cc2cc(C(F)(F)F)cc(Cl)c2F)cc1F` [Example 396, 4-(((1R,3S,5S)-8-(3-chloro-2-fluoro-5-(trifluoromethyl)benzyl)-8-azabicyclo-[3.2.1]octan-3-yl)methoxy)-5-cyclopropyl-N-(cyclopropylsulfonyl)-2-fluorobenzamide, trifluoroacetic acid salt], for which the IC50 turned out to be 14.8 nM. With `O=C(NS(=O)(=O)C1CC1)c1cc(C2CC2)c(OCC2CCN(S(=O)(=O)c3ccc(OC(F)(F)F)cc3)CC2)cc1F` [Example 379, 5-cyclopropyl-N-(cyclopropylsulfonyl)-2-fluoro-4-((1-((4-(trifluoromethoxy)phenyl)sulfonyl)piperidin-4-yl)methoxy)benzamide], the IC50 was found to be 17.2 nM. Consider `CS(=O)(=O)NC(=O)c1cc(C2CC2)c(OCC2CCN(Cc3cc(Cl)cc(Cl)c3F)CC2)cc1F` [Example 242, 5-Cyclopropyl-4-((1-(3,5-dichloro-2-fluorobenzyl)piperidin-4-yl)methoxy)-2-fluoro-N-(methylsulfonyl)benzamide], for which the IC50 amounted to 3 nM.
